Source: patent US20130190365A1, “Use of Deferiprone and Methods to Treat and/or Prevent Friedreich Ataxia Resulting from Intracellular Mishandling of Iron” (priority 2006, published 2013)

What was measured:
[1] = 52-week twice daily oral toxicity study in non-iron-loaded cynomolgus monkeys; type: in vivo
Procedure: As part of a larger study on the potential toxicity of iron chelators, we evaluated the toxicity of deferiprone in normal monkeys receiving 150 mg/kg/day (75 mg/kg twice daily) for 1 year.
To determine the toxicity of deferiprone in non-iron-loaded cynomolgus monkeys following twice daily oral (gavage) administration for 52 consecutive weeks, and to evaluate the regression of any toxic effect during a 4-week treatment-free period.
(§1) Groups of 4 male and 4 female monkeys (2 to 3 years old) were dosed by nasogastric intubation at (0.5% w/v aqueous carboxymethylcellulose vehicle) 75 mg/kg deferiprone twice daily (bid), with 6-8 hours between doses, for at least 364 days.
(§2) Clinical signs, body weights and food intake were assessed at frequent intervals. Ophthalmological and cardiovascular examinations were carried out in Weeks 17, 30, 43, 56 and 60. Hematology, coagulation, clinical chemistry and urine parameters were measured at baseline and in Weeks 8, 16, 30, 41, 56 and 60. Blood samples were taken on the first day of dosing, and in Weeks 17 and 56 for assessment of the serum deferiprone time-concentration profile. A full necropsy was performed on each animal, selected organs weighed, and histopathological examination of abnormalities and selected tissues conducted.

[2] = serum deferiprone time-concentration profile (HPLC) in the 52-week monkey study; type: in vivo, cynomolgus monkeys; settings: monkeys, 75 mg/kg twice daily oral
Procedure: as §1, §2
Deferiprone was detectable (HPLC) from 0.5 h after dosing, and for up to 7 h.

[3] = International Cooperative Ataxia Rating Score (ICARS), phase I-II open trial in Friedreich ataxia patients; type: in vivo, human; settings: for ICARS oculomotor disorder (/6) / ICARS posture and gait disturbance: gait speed / ICARS posture and gait disturbance: spread feet / ICARS speech disorder (/8) / ICARS posture and gait disturbance: standing eyes open / ICARS posture and gait disturbance: walking / ICARS kinetic function (/29) / ICARS posture and gait disturbance 7 items (/34): after trial
From the text: Ten adolescents (four males, six females aged 14 to 23 yrs) with a diagnosis of Friedreich ataxia, confirmed by detection of a trinucleotide-repeat expansion in the first intron of the frataxin gene, were studied. Patients received deferiprone (Ferriprox™, Apotex Inc., Toronto, Canada) orally, in two doses for 1-5 months. Three patients were included, sequentially, for a minimum period of two months at each dose. Patient enrollment was staggered by two-weeks to enable monitoring of response. In the absence of toxicity, and with evidence of efficacy in any of the first 3 patients, a second group of 3 patients would be included at the same dose for a total duration of 6 months. If there was an absence of both efficacy and toxicity, the second group of three patients would be administered a higher dose. If toxicity developed, the current dose would be suspended and the trial resumed with the next group of patients at a lower dose. The patients were on idebenone (10 mg/kg/day, in three doses) for at least two years prior to inclusion and were kept on the drug at the same dose for the duration of the trial. MRI examinations were done at inclusion and at 1, 2, 4 and 6 months. The protocol was promoted by Assistance Publique-Hopitaux de Paris and approved by the local ethical committee and registered at the National Health Authority (AFSSAPS) and at the International Protocol Registration System (www.clinicaltrials.gov). A written informed consent was obtained from patients and parents.
(§3) The International Cooperative Ataxia Rating Score (ICARS) was used to assess the symptoms of ataxia before and after 1-5 months (Cano et al. International cooperative ataxia rating scale (ICARS): Appropriate for studies of Friedreich's ataxia? Mov Disord 2005; 20:1585-91). This scale has four subscales: posture and gait disturbance, kinetic functions, speech disorders and oculomotor disorders. Subscale scores are summed to give a total score ranging from 0 to 100. High scores indicated worse ataxia. The Perdue Pegboard test, which assesses speed of performance, delicate movements and manipulative dexterity, was included in the course of the study. This test assesses the ability of the participant to insert as many nails as possible into preset holes, linearly dug in a wooden board in a limited space of time (20 seconds with the two hands, separately and together). The tests were administered by the same investigator. Patients were monitored for neutropenia, agranulocytosis, musculoskeletal pains and zinc deficiency and had weekly blood counts, plasma iron, serum ferritin and transferrin concentration measurements, as well as assessments of renal and liver function.

[4] = Perdue Pegboard test in Friedreich ataxia patients; type: in vivo, human; settings: for Perdue pegboard (number of nails inserted with the two hands alone+together): after trial
From the text: as §3

intracellular iron pools = settings: macrophages, hepatocytes and cardiomyocyte cell lines; cited from earlier work
[5] = patient eight, DFP 20 mg/kg, 3 mth, prior to trial 4
[6] = patient five, DFP 20 mg/kg, 5 mth, prior to trial 3
[7] = patient one, DFP 20 mg/kg, 4 mth, prior to trial 2
[8] = patient one, DFP 20 mg/kg, 4 mth, prior to trial 3
[9] = patient seven, DFP 20 mg/kg, 2 mth, prior to trial 2
[10] = patient seven, DFP 20 mg/kg, 2 mth, prior to trial 3
[11] = patient six, DFP 20 mg/kg, 2 mth, prior to trial 3
[12] = patient three, DFP 30 mg/kg, 1 mth, prior to trial 2
[13] = patient two, DFP 30 mg/kg, 1 mth, prior to trial 0

Cc1c(O)c(=O)ccn1C [deferiprone, 3-hydroxy-1,2-dimethylpyridin-4-one]
deferiprone-related effects on body weight, food intake, ophthalmology, cardiac conduction, blood pressure, heart rate, hematology or urine composition ([1]; 75 mg/kg twice daily, 52 weeks): no deferiprone-related effects
macroscopic findings at necropsy ([1]; 75 mg/kg twice daily, 52 weeks): No macroscopic findings related to deferiprone were found
microscopic findings (histopathology) ([1]; 75 mg/kg twice daily, 52 weeks): No microscopic findings in non-iron-loaded monkeys could be attributed to treatment with deferiprone
overall adverse effect ([1]; oral, 75 mg/kg twice daily for 52 weeks): without significant adverse effect
peak concentration relative to thalassemia patients on 25 mg/kg three times daily [2]: about three times
change of ICARS scores ([3]; 20 mg/kg/day, short period of the trial): mild changes of the ICARS scores
ICARS oculomotor disorder (/6) ([3]; patient eight, DFP 20 mg/kg, 3 mth, prior to trial 3): 2
ICARS posture and gait disturbance: gait speed [3, 5]: 4
ICARS posture and gait disturbance: spread feet [3, 5]: 4
ICARS speech disorder (/8) [3, 5]: 4
ICARS posture and gait disturbance: standing eyes open ([3]; patient eight, DFP 20 mg/kg, 3 mth, prior to trial 6): 6
ICARS posture and gait disturbance: walking ([3]; patient eight, DFP 20 mg/kg, 3 mth, prior to trial 7): 7
ICARS kinetic function (/29) ([3]; patient eight, DFP 20 mg/kg, 3 mth, prior to trial 21): 21
ICARS posture and gait disturbance 7 items (/34) ([3]; patient eight, DFP 20 mg/kg, 3 mth, prior to trial 33): 32
ICARS speech disorder (/8) ([3]; patient five, DFP 20 mg/kg, 5 mth, prior to trial 1): 0
ICARS oculomotor disorder (/6) ([3]; patient five, DFP 20 mg/kg, 5 mth, prior to trial 2): 2
ICARS posture and gait disturbance: gait speed [3, 6]: 3
ICARS posture and gait disturbance: spread feet [3, 6]: 2
ICARS posture and gait disturbance: standing eyes open ([3]; patient five, DFP 20 mg/kg, 5 mth, prior to trial 4): 4
ICARS posture and gait disturbance: walking ([3]; patient five, DFP 20 mg/kg, 5 mth, prior to trial 7): 7
ICARS kinetic function (/29) ([3]; patient five, DFP 20 mg/kg, 5 mth, prior to trial 8): 7
ICARS posture and gait disturbance 7 items (/34) ([3]; patient five, DFP 20 mg/kg, 5 mth, prior to trial 28): 27
ICARS posture and gait disturbance: gait speed ([3]; patient one, DFP 20 mg/kg, 4 mth, prior to trial 1): 1
ICARS oculomotor disorder (/6) [3, 7]: 2
ICARS posture and gait disturbance: standing eyes open [3, 7]: 1
ICARS speech disorder (/8) [3, 7]: 2
ICARS posture and gait disturbance: spread feet [3, 8]: 3
ICARS posture and gait disturbance: walking [3, 8]: 2
ICARS kinetic function (/29) ([3]; patient one, DFP 20 mg/kg, 4 mth, prior to trial 7): 7
ICARS posture and gait disturbance 7 items (/34) ([3]; patient one, DFP 20 mg/kg, 4 mth, prior to trial 12): 9
ICARS oculomotor disorder (/6) ([3]; patient seven, DFP 20 mg/kg, 2 mth, prior to trial 0): 0
ICARS posture and gait disturbance: gait speed ([3]; patient seven, DFP 20 mg/kg, 2 mth, prior to trial 1): 1
ICARS posture and gait disturbance: spread feet [3, 9]: 2
ICARS speech disorder (/8) [3, 9]: 2
ICARS posture and gait disturbance: standing eyes open [3, 10]: 1
ICARS posture and gait disturbance: walking [3, 10]: 3
ICARS kinetic function (/29) ([3]; patient seven, DFP 20 mg/kg, 2 mth, prior to trial 13): 12
ICARS posture and gait disturbance 7 items (/34) ([3]; patient seven, DFP 20 mg/kg, 2 mth, prior to trial 16): 13
ICARS oculomotor disorder (/6) ([3]; patient six, DFP 20 mg/kg, 2 mth, prior to trial 0): 0
ICARS posture and gait disturbance: gait speed ([3]; patient six, DFP 20 mg/kg, 2 mth, prior to trial 2): 2
ICARS posture and gait disturbance: spread feet [3, 11]: 3
ICARS speech disorder (/8) [3, 11]: 2
ICARS posture and gait disturbance: standing eyes open ([3]; patient six, DFP 20 mg/kg, 2 mth, prior to trial 5): 4
ICARS posture and gait disturbance: walking ([3]; patient six, DFP 20 mg/kg, 2 mth, prior to trial 7): 7
ICARS kinetic function (/29) ([3]; patient six, DFP 20 mg/kg, 2 mth, prior to trial 11): 11
ICARS posture and gait disturbance 7 items (/34) ([3]; patient six, DFP 20 mg/kg, 2 mth, prior to trial 17): 16
ICARS posture and gait disturbance: spread feet ([3]; patient three, DFP 30 mg/kg, 1 mth, prior to trial 1): 0
ICARS oculomotor disorder (/6) [3, 12]: 2
ICARS posture and gait disturbance: gait speed [3, 12]: 2
ICARS posture and gait disturbance: standing eyes open [3, 12]: 1
ICARS posture and gait disturbance: walking [3, 12]: 2
ICARS speech disorder (/8) [3, 12]: 2
ICARS kinetic function (/29) ([3]; patient three, DFP 30 mg/kg, 1 mth, prior to trial 8): 8
ICARS posture and gait disturbance 7 items (/34) ([3]; patient three, DFP 30 mg/kg, 1 mth, prior to trial 11): 8
ICARS oculomotor disorder (/6) [3, 13]: 0
ICARS speech disorder (/8) [3, 13]: 0
ICARS posture and gait disturbance: gait speed ([3]; patient two, DFP 30 mg/kg, 1 mth, prior to trial 1): 1
ICARS posture and gait disturbance: spread feet ([3]; patient two, DFP 30 mg/kg, 1 mth, prior to trial 2): 2
ICARS posture and gait disturbance: standing eyes open ([3]; patient two, DFP 30 mg/kg, 1 mth, prior to trial 3): 2
ICARS posture and gait disturbance: walking ([3]; patient two, DFP 30 mg/kg, 1 mth, prior to trial 7): 7
ICARS kinetic function (/29) ([3]; patient two, DFP 30 mg/kg, 1 mth, prior to trial 9): 9
ICARS posture and gait disturbance 7 items (/34) ([3]; patient two, DFP 30 mg/kg, 1 mth, prior to trial 20): 17
speed of performances and dexterity (Perdue Pegboard) ([4]; 30 mg/kg/day group, before and 1-2 months after onset of the trial): an improvement of speed of performances and dexterity
Perdue pegboard (number of nails inserted with the two hands alone+together) ([4]; patient seven, DFP 20 mg/kg, 2 mth, prior to trial 37): 29
Perdue pegboard (number of nails inserted with the two hands alone+together) ([4]; patient six, DFP 20 mg/kg, 2 mth, prior to trial 37): 44
Perdue pegboard (number of nails inserted with the two hands alone+together) ([4]; patient two, DFP 30 mg/kg, 1 mth, prior to trial 52): 39
access to intracellular iron pools and chelation in cells (intracellular iron pools): readily enter most cells and efficiently reach the major intracellular sites of iron accumulation

CC(=O)N(O)CCCCCNC(=O)CCC(=O)N(O)CCCCCNC(=O)CCC(=O)N(O)CCCCCN [desferrioxamine]
access to intracellular iron pools and chelation in cells (intracellular iron pools): slow
